# Several values for one entry are separate records, joined by “and”; a condition that tells them apart may be missing. Identical values can stand only once.
# Tests used:
# male Fischer 344 rats = assay: Rat hematology protocol (white blood cell determination); type: in vivo; conditions: for WBC's, Day 0, Mean: group mean of 5 rats; for WBC's, Day 0, Mean / WBC's, Day 0: pre-bleed before i.v. injection of 1 mg/kg; for WBC's, Day 3, Mean / WBC's, Day 7, Mean: group mean; for WBC's, Day 7, Mean / WBC's, Day 7: day 7 after 1 mg/kg i.v.; for WBC's, Day 3 / WBC's, Day 7 / WBC's, Day 0: individual rat; for WBC's, Day 0: 1 mg/kg
# Experimental: The purpose of the following procedure was to compare the toxicity of the Substrate-Cytotoxic Agent to the toxicity of Cytotoxic Agent alone. • 1. Day 0: 25 male Fischer 344 rats (∼100g) are pre-bled (eyebleed) and injected i.v. as follows: • Group A: 5 rats + vehicle control: 0.5 ml 10 mM HEPES, 150 NaCl, pH 7.1 buffer containing 10% ethanol. • Group B: 5 rats + 1 mg/kg 4 desacetylvinblastine-3-carboxhydrazide (DAVLBHYD). Dissolve 1 mg DAVLBHYD in 0.5 ml absolute ethanol and add 4.5 ml HEPES-NaCl buffer. Inject each rat with 0.5 ml. • Group C: 5 rats + 1 mg/kg ("LY262758") (7-β-2-(phenoxyacetamido)-3-(((desacetylvinblastine)aminocarboxy)methylene)-3-cephem-1-β-sulfoxide-4-carboxybiacid, trifluoroacetic acid salt) (vinca content), (58% vinca). Dissolve 2 mg as above and inject 0.5 ml. • Group D: 5 rats + 1mg/kg ("LY266494"), (7-β-(2-(thien-2-yl)acetamido-3-(((desacetylvinblastinehydrazido)carbonyloxy)methylene)-3-cephem-4-carboxylic acid, hydrochloride salt (55.8% vinca). Dissolve 2 mg and inject 0.5 ml. • Group E: 5 rats + 1 mg/kg ("LY266070") 7-β-(2-(thien-2-yl)acetamido-3-(((desacetylvinblastinehydrazido)carbonyloxy)methylene)-3-cephem-1-β-sulfoxide-4-carboxylic acid, trifluoroacetic acid salt. Dissovle 2 mg and inject 0.5 ml. All animals were indentifed by ear punch and were bled on days 3 and 7 post treatment for white blood cell (WBC) determination. The raw data are on the following page. […] The WBC values of the groups were indistinguishable at day 7 (and lower than the pre-bleed which may have been due to using a different instrument for the WBC determination).
# [1] = test system: CEA - bearing LS174T tumor cells; assay: In vitro cytotoxicity determination (3H-leucine uptake); type: cell-based
# Experimental: Target cells (antigen positive or antigen negative) are resuspended in 75% leucine deficient EBSS-MEM (GIBCO, Grand Island, NY) + 10% dialyzed fetal bovine serum (FBS) + gentamicin (GIBCO) at 200,000 cells/ml. Aliquots of this cell suspension, 0.2 ml, are seeded into 96 well plates and incubated overnight at 37°C, 5% CO₂. To the supernatants is added the antibody-enzyme conjugate to a final concentration of 25 µg/ml (unconjugated enzyme, unconjugated antibody, no treatment). The supernatants are removed after 1 hr incubation, and the cells rinsed once with media. The media is then replaced with the same media, but containing a Substrate-Cytotoxic Agent at concentrations between 0.001 and 10 µg/ml. The cells are incubated with the Substrate-Cytotoxic Agent compound for a period of time ranging from 3 to 48 h at 37°C, 5% CO₂. Media containing 4 µCi of ³H-leucine are added per well. The cells are incubated 24 hr with the labeled leucine, then harvested. Uptake of labeled leucine is determined by liquid scintillation counting. (All Samples are run in triplicate.) Results are reported as the Substrate-Cytotoxic Agent concentration at which leucine incorporation is reduced to 50% of the control value (ID₅₀).
# The rest of the experiment was carried using the above standard procedure.
# [2] = target: P-99 E. cloacae beta-lactamase Enzyme (Enterobacter cloacae, UniProt P05364); assay: Release of substituents from the 3'-methylene group of cephalosporins on treatment with beta-lactamase; type: biochemical
# Experimental: (If the detection method is not instantaneous, the enzyme can be stopped at the desired time by addition of an inhibitor such as cloxacillin (Sigma, St. Louis, Mo.) at its effective concentration: 5 µM for cloxacillin.)
# For instance, a model system for the present method employs the expulsion of aminoethanethiol from 7-β-(2-(thien-2-yl)acetamido)-3-((2-aminoethyl-1-sulfide)methylene)-3-cephem-4-carboxylic acid. A typical enzyme assay was performed (following the 264 nm absorbance), but in 50 mM Tris, 100 mM NaCl buffer, pH 8.0. […] Using molar extinction coefficients of 8,540 for the 264 nm absorbance, and 13,600 for the 412 nm absorbance, the rates of the two reactions can be compared (reaction of thiol with DTNB is instantaneous under these conditions).
# A stock solution of P-99 E. cloacae beta-lactamase Enzyme was prepared. To the stock solution of the cephalosporin Substrate (90 µl) was added stock beta-lactamase solution (10 µl). The reaction was monitored by HPLC (on a Waters Associates C₁₈ µ Bondapak column) eluted with 25% acetonitrile/ 1% acetic acid in water (monitered at 254 nm absorbance). The retention time for 5-fluorouracil was 1.9 minutes and was 5.3 minutes for the cephalosporin - (5-fluorouracil) compound. Approximately 30 seconds after mixing, a 5 µl aliqout of the reaction mixture was injected into the HPLC. […] Thirty-six minutes after mixing the stock solutions the amount of compound eluting at […] was further diminished, and the amount of compound eluting at 1.9 minutes was correspondingly larger by intergration of the peak areas.
# white blood cell (WBC) = assay: Rat hematology protocol (white blood cell determination); type: in vivo, male Fischer 344 rats; conditions: day 3 post treatment, 1 mg/kg i.v., compared to all other groups
# Experimental: The purpose of the following procedure was to compare the toxicity of the Substrate-Cytotoxic Agent to the toxicity of Cytotoxic Agent alone. • 1. Day 0: 25 male Fischer 344 rats (∼100g) are pre-bled (eyebleed) and injected i.v. as follows: • Group A: 5 rats + vehicle control: 0.5 ml 10 mM HEPES, 150 NaCl, pH 7.1 buffer containing 10% ethanol. • Group B: 5 rats + 1 mg/kg 4 desacetylvinblastine-3-carboxhydrazide (DAVLBHYD). Dissolve 1 mg DAVLBHYD in 0.5 ml absolute ethanol and add 4.5 ml HEPES-NaCl buffer. Inject each rat with 0.5 ml. • Group C: 5 rats + 1 mg/kg ("LY262758") (7-β-2-(phenoxyacetamido)-3-(((desacetylvinblastine)aminocarboxy)methylene)-3-cephem-1-β-sulfoxide-4-carboxybiacid, trifluoroacetic acid salt) (vinca content), (58% vinca). Dissolve 2 mg as above and inject 0.5 ml. • Group D: 5 rats + 1mg/kg ("LY266494"), (7-β-(2-(thien-2-yl)acetamido-3-(((desacetylvinblastinehydrazido)carbonyloxy)methylene)-3-cephem-4-carboxylic acid, hydrochloride salt (55.8% vinca). Dissolve 2 mg and inject 0.5 ml. • Group E: 5 rats + 1 mg/kg ("LY266070") 7-β-(2-(thien-2-yl)acetamido-3-(((desacetylvinblastinehydrazido)carbonyloxy)methylene)-3-cephem-1-β-sulfoxide-4-carboxylic acid, trifluoroacetic acid salt. Dissovle 2 mg and inject 0.5 ml. All animals were indentifed by ear punch and were bled on days 3 and 7 post treatment for white blood cell (WBC) determination. […]
# [3] = day 3 after 1 mg/kg i.v., trifluoroacetic acid salt
# [4] = substance alone, no conjugate, treatment time 6 Hours
# [5] = substance alone, no conjugate, treatment time 48 Hours
# Sequence of P-99 E. cloacae beta-lactamase Enzyme (P05364 21-381): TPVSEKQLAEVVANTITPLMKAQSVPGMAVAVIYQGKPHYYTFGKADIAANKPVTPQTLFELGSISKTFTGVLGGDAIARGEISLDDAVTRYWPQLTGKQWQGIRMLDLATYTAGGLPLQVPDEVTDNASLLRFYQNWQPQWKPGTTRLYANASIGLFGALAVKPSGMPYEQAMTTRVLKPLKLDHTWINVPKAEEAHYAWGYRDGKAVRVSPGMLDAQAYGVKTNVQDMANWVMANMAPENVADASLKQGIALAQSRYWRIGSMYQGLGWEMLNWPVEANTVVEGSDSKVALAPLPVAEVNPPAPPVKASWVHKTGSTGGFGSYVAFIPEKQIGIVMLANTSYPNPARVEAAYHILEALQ
molecule,measurement,setting,value
"7-β-2-(phenoxyacetamido)-3-(((desacetylvinblastine)aminocarboxy)methylene)-3-cephem-1-β-sulfoxide-4-carboxybiacid, trifluoroacetic acid salt [LY262758]","WBC's, Day 0, Mean",male Fischer 344 rats,13.4 x 1000
same,"WBC's, Day 3, Mean",male Fischer 344 rats; day 3 after 1 mg/kg i.v.,14.8 x 1000
same,"WBC's, Day 7, Mean",male Fischer 344 rats,11.2 x 1000
same,"WBC's, Day 3",male Fischer 344 rats; [3],13.3 x 1000 and 14.6 x 1000 and 15.0 x 1000 and 16.3 x 1000 and 14.7 x 1000
same,"WBC's, Day 7",male Fischer 344 rats; trifluoroacetic acid salt,14.0 x 1000 and 13.0 x 1000 and 12.5 x 1000 and 9.0 x 1000 and 7.7 x 1000
same,"WBC's, Day 0",male Fischer 344 rats; trifluoroacetic acid salt,13.3 x 1000 and 14.3 x 1000 and 9.4 x 1000 and 10.2 x 1000 and 19.7 x 1000
7-β-(2-(thien-2-yl)acetamido)-3-((((1-(desacetylvinblastine)amino)-2-ethylsulfide)methylene)-3-cephem-4-carboxylic acid [COMPOUND] [listing 1 of 2 here],toxicity to the tumor cells,[1]; LS174T cells first treated with B-L-CEM231 conjugate at 25 µg/ml for 1 hour,dramatically increased
same,toxicity to the tumor cells,"[1]; LS174T cells untreated with conjugate, compared with the Cytotoxic Agent from which it is derived",much less toxic to the tumor cells than the Cytotoxic Agent from which it is derived
7-β-(2-(thien-2-yl)acetamido)-3-((((1-(desacetylvinblastine)amino)-2-ethylsulfide)methylene)-3-cephem-4-carboxylic acid [COMPOUND] [listing 2 of 2 here],ID50,"[1]; cells first treated with B-L-CEM231 conjugate 25 µg/ml for 1 hour, COMPOUND treatment time 6 Hours",0.265 µg/mL
same,ID50,"[1]; cells first treated with B-L-CEM231 conjugate 25 µg/ml for 1 hour, COMPOUND treatment time 48 Hours",<0.001 µg/mL
same,ID50,[1]; [4],.154 µg/mL
same,ID50,[1]; [5],<0.001 µg/mL
"NCCSCC1=C(C(=O)O)N2C(=O)[C@@H](NC(=O)Cc3cccs3)[C@H]2SC1 [7-β-(2-(thien-2-yl)acetamido)-3-((2-aminoethyl-1-sulfide)methylene)-3-cephem-4-carboxylic acid, reference compound]",release of thiol,"[2]; 50 mM Tris, 100 mM NaCl, pH 8.0, DTNB, absorbance at 412 nm vs 264 nm","thiol is released as a result of beta-lactamase catalyzed cleavage of the cephalosporin, but that the release rate is slower than the catalytic rate"
"CC[C@]1(O)C[C@@H]2CN(CCc3c([nH]c4ccccc34)[C@@](C(=O)OC)(c3cc4c(cc3OC)N(C)[C@H]3[C@@](O)(C(=O)NN)[C@H](O)[C@]5(CC)C=CCN6CC[C@]43[C@@H]65)C2)C1 [DAVLB-Hyd, 4 desacetylvinblastine-3-carboxhydrazide, reference compound]",WBC suppression,"male Fischer 344 rats; day 3 after 1 mg/kg i.v., compared to all other groups",significant WBC suppression
same,"WBC's, Day 0, Mean",male Fischer 344 rats,13.8 x 1000
same,"WBC's, Day 3, Mean",male Fischer 344 rats; day 3 after 1 mg/kg i.v.,7.4 x 1000
same,"WBC's, Day 7, Mean",male Fischer 344 rats,9.2 x 1000
same,"WBC's, Day 3",male Fischer 344 rats; day 3 after 1 mg/kg i.v.,4.4 x 1000 and 9.0 x 1000 and 5.4 x 1000 and 10.6 x 1000
same,"WBC's, Day 7",male Fischer 344 rats,5.0 x 1000 and 2.8 x 1000 and 19.8 x 1000
same,"WBC's, Day 0",male Fischer 344 rats,17.4 x 1000 and 10.9 x 1000 and 10.2 x 1000 and 12.7 x 1000 and 17.6 x 1000
"CC[C@]1(O)C[C@@H]2CN(CCc3c([nH]c4ccccc34)[C@@](C(=O)OC)(c3cc4c(cc3OC)N(C)[C@H]3[C@@](O)(C(=O)NN)[C@H](O)[C@]5(CC)C=CCN6CC[C@]43[C@@H]65)C2)C1 [DAVLBHYD, 4 desacetylvinblastine-3-carboxhydrazide]",white blood cell (WBC) determination,white blood cell (WBC),significant WBC suppression
"CCC1(O)CC2CN(CCc3c([nH]c4ccccc34)C(C(=O)OC)(c3cc4c(cc3OC)N(C)C3C(O)(C(=O)NCCS)C(O)C5(CC)C=CCN6CCC43C65)C2)C1 (stereo not shown) [Desacetylvinblastine aminoethanethiol, reference compound]",ID50,[1]; [4],0.26 µg/mL
same,ID50,[1]; [5],<0.001 µg/mL
CC[C@]1(O)C[C@H]2CN(CCc3c([nH]c4ccccc34)[C@@](C(=O)OC)(c3cc4c(cc3OC)N(C)[C@H]3[C@@](O)(C(=O)NNC(=O)OCC5=C(C(=O)O)N6C(=O)[C@@H](NC(=O)Cc7cccs7)[C@H]6[S+]([O-])C5)[C@H](O)[C@]5(CC)C=CCN6CC[C@]43[C@@H]65)C2)C1.O=C(O)C(F)(F)F (stereo partly shown) [LY266070],"WBC's, Day 0, Mean",male Fischer 344 rats,13.0 x 1000
same,"WBC's, Day 3, Mean",male Fischer 344 rats; day 3 after 1 mg/kg i.v.,13.9 x 1000
same,"WBC's, Day 7, Mean",male Fischer 344 rats,9.6 x 1000
same,"WBC's, Day 3",male Fischer 344 rats; [3],15.9 x 1000 and 12.8 x 1000 and 15.1 x 1000 and 14.5 x 1000 and 11.3 x 1000
same,"WBC's, Day 7",male Fischer 344 rats; trifluoroacetic acid salt,7.0 x 1000 and 14.5 x 1000 and 9.6 x 1000 (2×) and 7.1 x 1000
same,"WBC's, Day 0",male Fischer 344 rats; trifluoroacetic acid salt,14.1 x 1000 and 15.0 x 1000 and 9.9 x 1000 (2×) and 16.2 x 1000
CCC1(O)CC2CN(CCc3c([nH]c4ccccc34)C(C(=O)OC)(c3cc4c(cc3OC)N(C)C3C(O)(C(=O)NNC(=O)OCC5=C(C(=O)O)N6C(=O)C(NC(=O)Cc7cccs7)C6SC5)C(O)C5(CC)C=CCN6CCC43C65)C2)C1.Cl (stereo not shown) [LY266494],"WBC's, Day 0, Mean",male Fischer 344 rats,15.6 x 1000
same,"WBC's, Day 3, Mean",male Fischer 344 rats; day 3 after 1 mg/kg i.v.,15.0 x 1000
same,"WBC's, Day 7, Mean",male Fischer 344 rats,12.0 x 1000
same,"WBC's, Day 3","male Fischer 344 rats; day 3 after 1 mg/kg i.v., hydrochloride salt",19.2 x 1000 and 16.2 x 1000 and 14.3 x 1000 and 13.3 x 1000 and 12.1 x 1000
same,"WBC's, Day 7",male Fischer 344 rats; hydrochloride salt,8.3 x 1000 and 6.8 x 1000 and 11.4 x 1000 and 13.2 x 1000 and 20.1 x 1000
same,"WBC's, Day 0",male Fischer 344 rats; hydrochloride salt,15.6 x 1000 and 16.5 x 1000 and 14.3 x 1000 and 16.0 x 1000
"O=C(Cc1cccs1)N[C@@H]1C(=O)N2C(C(=O)O)=C(Cn3cc(F)c(=O)[nH]c3=O)CS[C@H]12 [ceph-5-FU, 7-β-(2-(thien-2-yl)acetamido)-3-((N-1(5-fluorouracil)-yl)methylene)-3-cephem-4-carboxylic acid]",expulsion of 5-fluorouracil (HPLC trace),[2]; approximately 30 seconds after mixing with beta-lactamase,the cephalosporin had been consumed
same,expulsion of 5-fluorouracil (HPLC trace),"[2]; twenty-one minutes after mixing, 5-fluorouracil elutes at 1.9 minutes",a large amount of compound eluting at 1.9 minutes was observed
